Measured values taken from patent publication US20230151034A1 (COCRYSTAL PHARMA, INC., priority 2020, published 2023).
Read-outs that look alike come from different tables or passages of the source.

Legend:
[1] = target: HuNV GGII.4 Norovirus protease (Norovirus GII.4 (human norovirus genogroup II genotype 4), UniProt P54634); test: Norovirus protease FRET assay (HuNV GGII.4); type: biochemical; settings: Table C; FRET protease assay; read-out: HuNV GGII.4 IC50
[2] = target: Norwalk GGI.1 Norovirus protease (Norovirus, UniProt Q83883); test: Noro-Norwalk FRET protease assay (Norwalk GGI.1); type: biochemical, Norwalk virus; settings: Table C; FRET protease assay; read-out: Norwalk GGI.1 IC50
Norwalk GGI.1 Norovirus protease, sequence (Q83883 1101-1281): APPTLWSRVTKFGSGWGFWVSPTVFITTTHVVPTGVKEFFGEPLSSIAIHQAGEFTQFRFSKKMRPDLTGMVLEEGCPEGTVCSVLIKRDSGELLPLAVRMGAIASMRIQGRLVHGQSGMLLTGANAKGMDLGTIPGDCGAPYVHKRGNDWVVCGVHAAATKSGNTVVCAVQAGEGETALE
Description: (§1) Viral protease assays: The antiviral activities of inhibitors were determined by FRET (Fluorescence Resonance Energy Transfer) assay. Purified viral protease was incubated with the protease substrate peptide (Edans-DFHLQ/GP-Dabcyl) and inhibitor, and IC50 values were subsequently determined by the fluorescence signals.
The Noro-Norwalk FRET protease assay was performed in 50 mM HEPES-Na pH 8, 50 mM NaCl, 0.4 mM EDTA, 4% glycerol, and 6 mM DTT. A self-quenching peptide substrate [5-FAM]-[…]-[TAMRA] was custom synthesized by Anaspec. Compounds were diluted in 3-fold serial dilutions to final concentrations of 200 μM to 10.2 nM. Noro protease was added to a final concentration of 1-7 μM, depending on the enzyme activity level, and the peptide substrate was added to a final concentration of 10 μM. The assay was incubated 90 minutes at 37° C. and read in a Perkin Elmer Envision with excitation at 473 nm and emission measurement at 519 nm.

SARS2 protease = SARS2 protease (Severe acute respiratory syndrome coronavirus 2, UniProt P0DTD1); test: SARS-CoV-2 protease inhibition assay (SARS2 FRET protease assay); type: biochemical
Description: as §1
The SARS2 FRET protease assay was performed in 20 mM HEPES-Na pH 7, 120 mM NaCl, 0.4 mM EDTA, 0.01% Triton, 5% glycerol, and 4 mM DTT. A self-quenching peptide substrate 5-FAM-TSA VLQ SGF RKK (5TAMRA)-NH2 was custom synthesized by Anaspec. Compounds were diluted in 3-fold serial dilutions to final concentrations of 20 μM to 1.0 nM. SARS2 protease was added to a final concentration of 25 nM, depending on the enzyme activity level, and the peptide substrate was added to a final concentration of 1.3 μM. The assay was incubated 30 minutes at 30° C. and read in a Perkin Elmer Envision with excitation at 473 nm and emission measurement at 519 nm.

[3] = Table E, SARS-CoV-2 protease inhibition, read-out: IC50

HuNV GGII.4 Norovirus protease, sequence (P54634 1009-1189): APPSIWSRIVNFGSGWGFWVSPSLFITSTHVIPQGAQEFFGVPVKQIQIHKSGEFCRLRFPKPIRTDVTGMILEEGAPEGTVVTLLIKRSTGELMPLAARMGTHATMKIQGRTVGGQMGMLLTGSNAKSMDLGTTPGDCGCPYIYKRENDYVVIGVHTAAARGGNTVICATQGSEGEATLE

Compound	IC50 (SARS2 protease; [3]) [µM]	further results
CN(CCc1ccccc1)C(=O)CC[C@H](NC(=O)[C@H](CC1CCCCC1)NC(=O)OCc1cccc(Cl)c1)C(O)S(=O)(=O)O (stereo in doubt) [Compound A114, Sodium (2S)-2-((S)-2-((((3-chlorobenzyl)oxy)carbonyl)amino)-3-cyclohexylpropanamido)-1-hydroxy-5-(methyl (phenethyl)amino)-5-oxopentane-1-sulfonate]		IC50 [1]: 12.1 µM; IC50 [2]: 5.2 µM
O=C[C@H](CCC(=O)N1CCc2ccccc2CC1)NC(=O)[C@H](CC1CCCCC1)NC(=O)OCc1cccc(Cl)c1 (stereo in doubt) [Compound A118, 3-Chlorobenzyl ((S)-3-cyclohexyl-1-(((S)-1,5-dioxo-5-(1,2,4,5-tetrahydro-3H-benzo[d]azepin-3-yl)pentan-2-yl)amino)-1-oxopropan-2-yl)carbamate]		IC50 [1]: 74.2 µM; IC50 [2]: 6.6 µM
O=C[C@H](CCC(=O)N1CCOc2ccccc2C1)NC(=O)[C@H](CC1CCCCC1)NC(=O)OCc1cccc(Cl)c1 [Compound A57, 3-Chlorobenzyl ((S)-3-cyclohexyl-1-(((S)-5-(2,3-dihydrobenzo[f][1,4]oxazepin-4(5H)-yl)-1,5-dioxopentan-2-yl)amino)-1-oxopropan-2-yl)carbamate]		IC50 [1]: 2.6 µM; IC50 [2]: 2.3 µM
CN(CCc1ccncc1)C(=O)CC[C@@H](C=O)NC(=O)[C@H](CC1CCCCC1)NC(=O)OCc1cccc(Cl)c1 [Compound A68, 3-Chlorobenzyl ((S)-3-cyclohexyl-1-(((S)-5-(methyl (2-(pyridin-4-yl)ethyl)amino)-1,5-dioxopentan-2-yl)amino)-1-oxopropan-2-yl) carbamate]		IC50 [1]: 16.7 µM; IC50 [2]: 4.6 µM
CCOP(=O)(OCC)C(O)[C@H](CC(C)C(=O)N(C)CCc1ccccc1)NC(=O)[C@H](CC1CCCCC1)NC(=O)OCc1cccc(Cl)c1 (stereo partly drawn) [Compound A104, 3-Chlorobenzyl ((2S)-3-cyclohexyl-1-(((2S)-1-(diethoxyphosphoryl)-1-hydroxy-4-methyl-5-(methyl (phenethyl)amino)-5-oxopentan-2-yl)amino)-1-oxopropan-2-yl)carbamate]	> 200	
CCOP(=O)(OCC)C(O)[C@H](CCC(=O)N1CCCC(c2ccccc2)C1)NC(=O)[C@H](CC1CCCCC1)NC(=O)OCc1cccc(Cl)c1 (stereo partly drawn) [Compound A106, 3-Chlorobenzyl ((2S)-3-cyclohexyl-1-(((2S)-1-(diethoxyphosphoryl)-1-hydroxy-5-oxo-5-(3-phenylpiperidin-1-yl)pentan-2-yl)amino)-1-oxopropan-2-yl)carbamate]	> 200	
O=C[C@H](CCC(=O)N1CCCCc2ccccc21)NC(=O)[C@H](CC1CCCCC1)NC(=O)OCc1cccc(Cl)c1 [Compound A107, 3-Chlorobenzyl ((S)-3-cyclohexyl-1-(((S)-1,5-dioxo-5-(2,3,4,5-tetrahydro-1H-benzo[b]azepin-1-yl)pentan-2-yl)amino)-1-oxopropan-2-yl)carbamate]		IC50 [1]: 200 µM; IC50 [2]: 39.6 µM
O=C[C@H](CCC(=O)N1CCOCc2ccccc21)NC(=O)[C@H](CC1CCCCC1)NC(=O)OCc1cccc(Cl)c1 [Compound A108, 3-Chlorobenzyl ((S)-3-cyclohexyl-1-(((S)-5-(2,3-dihydrobenzo[e][1,4]oxazepin-1(5H)-yl)-1,5-dioxopentan-2-yl)amino)-1-oxopropan-2-yl)carbamate]		IC50 [1]: 13.4 µM; IC50 [2]: 8 µM
CCCCCCCCC(=O)N[C@@H](CC(C)C)C(=O)N[C@H](CO)CCC(=O)NC [Compound A110, N—((S)-1-(((S)-1-hydroxy-5-(methylamino)-5-oxopentan-2-yl)amino)-4-methyl-1-oxopentan-2-yl)nonanamide]	> 200	
CCCCCCCCC(=O)N[C@@H](CC(C)C)C(=O)N[C@@H](CCC(=O)NC)CSSC[C@H](CCC(=O)NC)NC(=O)[C@H](CC(C)C)NC(=O)CCCCCCCC [Compound A111, N,N′-((2S,2'S)-(((2S,2'S)-disulfanediylbis(5-(methylamino)-5-oxopentane-1,2-diyl))bis(azanediyl))bis(4-methyl-1-oxopentane-1,2-diyl))dinonanamide]	> 200	
CCCCCCCCC(=O)N[C@@H](CC(C)C)C1=NC(CCC(=O)NC)CO1 (stereo partly drawn) [Compound A112, N-((1 S)-3-methyl-1-(4-(3-(methylamino)-3-oxopropyl)-4,5-dihydrooxazol-2-yl)butyl)nonanamide]	> 200	
CC(C)C[C@@H]1NC(=O)C(Cc2ccccc2)CCCC/C=C/CC2CC(NC1=O)C(O)N(C)C2=O (stereo partly drawn) [Compound B21, (4S,E)-7-benzyl-18-hydroxy-4-isobutyl-17-methyl-2,5,17-triazabicyclo[13.3.1]nonadec-12-ene-3,6,16-trione]	89.8	
CCCCCCCC1CCC/C=C/CC2(CCNC2=O)C[C@@H]([C@H](O)P(=O)(OCC)OCC)NC(=O)[C@H](CC(C)C)NC1=O (stereo partly drawn) [Compound B22, Diethyl ((1R)-((7S,10S,E)-13-heptyl-10-isobutyl-1,9,12-trioxo-2,8,11-triazaspiro[4.14]nonadec-17-en-7-yl)(hydroxy)methyl)phosphonate]		IC50 (SARS2 protease): > 200 µM
CCOP(=O)(OCC)C(O)[C@@H]1CC2(CC=CCCCC(Cc3ccccc3)C(=O)N[C@@H](CC(C)C)C(=O)N1)CCNC2=O (stereo partly drawn) [Compound B23, Diethyl (((7S,10S)-13-benzyl-10-isobutyl-1,9,12-trioxo-2,8,11-triazaspiro[4.14]nonadec-17-en-7-yl)(hydroxy)methyl)phosphonate]	46.5	
CC(C)C[C@@H]1NC(=O)C(Cc2ccccc2)CCCCCCCC2CC(NC1=O)C(O)N(C)C2=O (stereo partly drawn) [Compound B24, (4S)-7-benzyl-18-hydroxy-4-isobutyl-17-methyl-2,5,17-triazabicyclo[13.3.1]nonadecane-3,6,16-trione]	188	
CCCC1CCCC/C=C/CC2CC(NC(=O)[C@H](CC(C)C)NC1=O)C(O)(C(=O)NC(C)C)N(C)C2=O (stereo partly drawn) [Compound B26, (4S,E)-18-hydroxy-4-isobutyl-N-isopropyl-17-methyl-3,6,16-trioxo-7-propyl-2,5,17-triazabicyclo[13.3.1]nonadec-12-ene-18-carboxamide]	> 200	
CCOP(=O)(OCC)[C@H](O)[C@@H]1CC(C(=O)N(C)Cc2ccc(OC)cc2OC)C/C=C/CCC(Cc2ccccc2)OC(=O)N[C@@H](CC(C)C)C(=O)N1 (stereo partly drawn) [Compound B28, Diethyl ((1S)-((4S,7S,E)-15-benzyl-9-((2,4-dimethoxybenzyl)(methyl)carbamoyl)-4-isobutyl-2,5-dioxo-1-oxa-3,6-diazacyclopentadec-11-en-7-yl)(hydroxy)methyl)phosphonate]	> 200	
CCO[N+]([O-])(OCC)[C@H](O)[C@H]1CC2(CCCCCCC(Cc3ccccc3)C(=O)N[C@@H](CC(C)C)C(=O)N1)CCNC2=O (stereo partly drawn) [Compound B41]	> 200	
CC(C)C[C@@H]1NC(=O)OC(Cc2ccccc2)CCC=CCC(C(=O)N(C)C)C[C@@H](C(=O)C(=O)NC(C)C)NC1=O (stereo partly drawn) [Compound B42, (4S,7S)-15-benzyl-4-isobutyl-7-(2-(isopropylamino)-2-oxoacetyl)-N,N-dimethyl-2,5-dioxo-1-oxa-3,6-diazacyclopentadec-11-ene-9-carboxamide]		IC50 (SARS2 protease): > 200 µM
CCOP(=O)(OCC)C(O)[C@@H]1CC(C(=O)N(C)C)CCCCCC(Cc2ccccc2)OC(=O)N[C@@H](CC(C)C)C(=O)N1 (stereo partly drawn) [Compound B45, Diethyl (((4S,7S)-15-benzyl-9-(dimethylcarbamoyl)-4-isobutyl-2,5-dioxo-1-oxa-3,6-diazacyclopentadecan-7-yl)(hydroxy)methyl)phosphonate]	> 200	
CCCCCCCC1CC/C=C/CC(C(=O)NC)C[C@@H](CO)NC(=O)[C@H](CC(C)C)NC(=O)O1 (stereo partly drawn) [Compound B63, (4S,7S,E)-15-heptyl-7-(hydroxymethyl)-4-isobutyl-N-methyl-2,5-dioxo-1-oxa-3,6-diazacyclopentadec-11-ene-9-carboxamide]	30	
CCCCCCCC1CC/C=C/CC(C(=O)NC)C[C@@H](C(=O)N(C)OC)NC(=O)[C@H](CC(C)C)NC(=O)O1 (stereo partly drawn) [Compound B64, (4S,7S,E)-15-heptyl-4-isobutyl-N^7-methoxy-N^7,N^9-dimethyl-2,5-dioxo-1-oxa-3,6-diazacyclopentadec-11-ene-7,9-dicarboxamide]	> 200	
CCCCCCCC1CC/C=C\CC(C(=O)NC)C[C@@H](CO)NC(=O)[C@H](CC(C)C)NC1=O (stereo partly drawn) [Compound B65, (2S,5S,Z)-13-heptyl-5-(hydroxymethyl)-2-isobutyl-N-methyl-3,14-dioxo-1,4-diazacyclotetradec-9-ene-7-carboxamide]	> 200	
CCCCCCCC1CCCC/C=C/CC(C(=O)NC)C[C@@H](CO)NC(=O)[C@H](CC(C)C)NC1=O (stereo partly drawn) [Compound B66, (2S,5S,E)-15-heptyl-5-(hydroxymethyl)-2-isobutyl-N-methyl-3,16-dioxo-1,4-diazacyclohexadec-9-ene-7-carboxamide]	> 200	
